The target in this assay is T1, PROBABLE TRANSMEMBRANE CARBONIC ANHYDRASE (CARBONATE DEHYDRATASE) (CARBONIC DEHYDRATASE) (Mycobacterium tuberculosis, UniProt P96878).
T1 sequence (P96878 whole entry): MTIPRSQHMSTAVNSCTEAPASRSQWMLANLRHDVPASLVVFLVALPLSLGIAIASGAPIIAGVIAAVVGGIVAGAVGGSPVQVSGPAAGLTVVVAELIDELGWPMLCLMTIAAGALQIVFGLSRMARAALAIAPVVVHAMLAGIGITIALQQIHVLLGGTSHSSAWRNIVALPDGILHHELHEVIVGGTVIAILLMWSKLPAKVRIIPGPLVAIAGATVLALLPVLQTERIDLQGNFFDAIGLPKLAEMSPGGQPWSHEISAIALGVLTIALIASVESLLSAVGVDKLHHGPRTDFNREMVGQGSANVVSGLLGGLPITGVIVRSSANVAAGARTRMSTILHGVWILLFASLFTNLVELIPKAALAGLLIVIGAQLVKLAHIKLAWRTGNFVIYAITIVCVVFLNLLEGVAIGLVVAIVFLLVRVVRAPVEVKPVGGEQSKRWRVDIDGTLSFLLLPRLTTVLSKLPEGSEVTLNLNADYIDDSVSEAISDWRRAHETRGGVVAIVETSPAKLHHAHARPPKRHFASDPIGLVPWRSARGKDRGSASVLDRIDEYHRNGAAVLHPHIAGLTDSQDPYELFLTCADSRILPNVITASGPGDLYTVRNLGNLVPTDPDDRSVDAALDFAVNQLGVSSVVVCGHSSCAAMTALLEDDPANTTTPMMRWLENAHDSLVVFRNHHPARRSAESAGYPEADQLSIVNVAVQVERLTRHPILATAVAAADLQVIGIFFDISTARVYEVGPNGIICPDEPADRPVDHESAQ

The source of these data is ChEMBL document CHEMBL1641603, “Inhibition of β-carbonic anhydrases with ureido-substituted benzenesulfonamides” (Bioorg Med Chem Lett, 2011).

By pKi is commonly meant the negative decadic logarithm of the Ki, by convention in mol/L. A low value points to a large Ki.

pKi: −log10 of the molar value.

The compound `Nc1ccc(S(N)(=O)=O)cc1` [SULFANILAMIDE] showed a pKi of 5.20.
